Results as given in patent publication US6344477B1, “Prostaglandin e agonists for treatment of dry eye” (Alcon Manufacturing, Ltd., priority 1998, dated 2002).

Columns and labels:
[1] = molecular target: T1, EP4 Receptors in Chinese Hamster Ovary Cells (Cricetulus griseus, UniProt A0A061ILF4); assay: cAMP production (radioimmunoassay) via EP4 receptors in Chinese hamster ovary cells; format: cell-based; settings: 15-60 min at 23° C.; for EC50: read-out: Potency (EC50, nM) at EP4 Receptors in Chinese Hamster Ovary Cells
T1 construct: Chinese hamster ovary cells (containing EP4 receptors); endogenous in cells; host or cells: Chinese hamster ovary cells
Experimental: (§1) Immortalized human non-pigmented ciliary epithelial cells (containing EP2 receptors) and Chinese hamster ovary cells (containing EP4 receptors) were stimulated with various prostaglandins for 15-60 min at 23° C. The cAMP produced by receptor activation was determined by a specific radioimmunoassay as previously described (Sharif et. al., Pharmacological analysis of mast cell mediator and neurotransmitter receptors coupled to adenylate cyclase and phospholipase C on immunocytochemically-defined human conjunctival epithelial cells, J. Ocular Pharmacology & Therapeutics, 13:321-336 (1997); Crider et. al., Prostaglandin-stimulated adenylyl cyclase activity via a pharmacologically-defined EP2 receptor in human non-pigmented epithelial cells, J. Ocular Pharmacology & Therapeutics, 14:293-304 (1998); Crider et. al., Use of a semi-automated, robotic radioimmunoassay to measure cAMP generated by activation of DP-, EP2- and IP-prostaglandin receptors in human ocular and other cell-types, Prostaglandins, Leukotrienes & Fatty Acids, 59:77-82 (1998); Milne et. al., Human monocytes and cultured Chinese hamster ovary cells express EP4 receptors positively coupled to adenylate cyclase, Br. J. Pharmacology, 113 (supplement), 8p, (1994)).

[2] = molecular target: T2, EP2 Receptors in Immortalized Human Non-pigmented Ciliary Epithelial Cells (Homo sapiens, UniProt P43116); assay: cAMP production (radioimmunoassay) via EP2 receptors in immortalized human non-pigmented ciliary epithelial cells; format: cell-based; settings: for EC50: cAMP production, 15-60 min at 23° C., read-out: Potency (EC50, nM) at EP2 Receptors in Immortalized Human Non-pigmented Ciliary Epithelial Cells
T2 construct: Immortalized human non-pigmented ciliary epithelial cells (containing EP2 receptors); endogenous in cells; host or cells: immortalized human non-pigmented ciliary epithelial cells
Experimental: as §1

T2 sequence (P43116 whole entry): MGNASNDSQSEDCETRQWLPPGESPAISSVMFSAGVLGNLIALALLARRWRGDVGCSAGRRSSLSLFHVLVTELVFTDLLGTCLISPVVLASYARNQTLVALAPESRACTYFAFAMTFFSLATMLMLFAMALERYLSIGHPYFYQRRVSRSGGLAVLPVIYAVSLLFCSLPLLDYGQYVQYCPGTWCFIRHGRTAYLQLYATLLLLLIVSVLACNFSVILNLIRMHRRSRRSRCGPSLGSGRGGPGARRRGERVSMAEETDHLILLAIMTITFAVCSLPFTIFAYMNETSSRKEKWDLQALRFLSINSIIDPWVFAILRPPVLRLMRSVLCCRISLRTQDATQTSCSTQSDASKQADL
T1 sequence (A0A061ILF4 1-488): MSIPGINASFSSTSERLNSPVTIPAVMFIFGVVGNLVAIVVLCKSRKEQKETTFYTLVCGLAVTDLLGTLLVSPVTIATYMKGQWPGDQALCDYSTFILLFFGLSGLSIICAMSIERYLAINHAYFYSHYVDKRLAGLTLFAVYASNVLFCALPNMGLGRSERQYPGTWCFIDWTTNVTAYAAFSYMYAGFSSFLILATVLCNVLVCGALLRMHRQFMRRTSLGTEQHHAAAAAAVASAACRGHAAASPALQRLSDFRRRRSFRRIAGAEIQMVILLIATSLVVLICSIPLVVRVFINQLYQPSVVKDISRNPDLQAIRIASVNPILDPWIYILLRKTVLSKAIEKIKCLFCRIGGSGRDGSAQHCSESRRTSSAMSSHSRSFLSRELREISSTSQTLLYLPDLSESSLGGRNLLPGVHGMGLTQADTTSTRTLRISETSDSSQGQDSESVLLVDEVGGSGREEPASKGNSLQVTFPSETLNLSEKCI

| SMILES | EC50 [1] | EC50 [2] | Receptor selectivity EP2 versus EP4 ([2]; comparison of EC50 at EP2 and EP4 receptors) | Efficacy at EP4 Receptors in Chinese Hamster Ovary Cells [1] |
| --- | --- | --- | --- | --- |
| CCCCC(C)(C)[C@H](O)/C=C/[C@H]1CCC(=O)[C@@H]1C/C=C\CCCC(=O)O [11-deoxy-16,16-dimethyl-PGE2, 11-deoxy-16,16,-dimethyl-PGE2] | 176 nM | 739 nM |  |  |
| CCCC1([C@H](O)C/C=C/[C@H]2[C@H](O)CC(=O)[C@@H]2CCCCCCC(=O)OC)CCC1 [Butaprost, reference compound] | > 10000 nM | 212 nM | more EP2-selective |  |
| CCCCC(C)(C)[C@H](O)/C=C/[C@H]1[C@H](O)CC(=O)[C@@H]1C/C=C\CCCC(=O)O [16,16-dimethyl-PGE2] | 31 nM | 686 nM |  |  |
| CCCCC[C@H](O)/C=C/[C@H]1CCC(=O)[C@@H]1CCCCCCC(=O)O [11-deoxy-PGE1] | 38 nM | 500 nM |  | 86% |
